Structures are written as SMILES.

This assay deals with human EP4 receptor (Homo sapiens (Human), UniProt P35408). Briefly: EP4 antagonistic activity measurement experiment using prostanoid receptor subtype expressing cells. The assay is classed as cell-based. Particulars: CHO cells expressing human EP4 receptor; inhibition of cAMP production by PGE2 10 nM; 30 minutes at room temperature. The method, then: CHO cells expressing human EP4 receptor subtypes were prepared according to the methods of Nishigaki et al. (Non-Patent Literature 4), and used for experiment. Cells cultured to subconfluent were detached, and suspended in an assay medium (MEM containing 1 mmol/L IBMX, 1% HSA) such that a concentration became 1×10^6 cells/mL. For reaction, PGE2 was added to the cell suspension (25 μL) in a final concentration of 10 nmol/L, either alone or as a 25-μL PGE2 solution containing the test compound. After 30 minutes of reaction at room temperature, the amount of cAMP in the cells was quantified according to the method in the descriptions of the cAMP assay kit (CISBIO).
human EP4 receptor, sequence (P35408 whole entry): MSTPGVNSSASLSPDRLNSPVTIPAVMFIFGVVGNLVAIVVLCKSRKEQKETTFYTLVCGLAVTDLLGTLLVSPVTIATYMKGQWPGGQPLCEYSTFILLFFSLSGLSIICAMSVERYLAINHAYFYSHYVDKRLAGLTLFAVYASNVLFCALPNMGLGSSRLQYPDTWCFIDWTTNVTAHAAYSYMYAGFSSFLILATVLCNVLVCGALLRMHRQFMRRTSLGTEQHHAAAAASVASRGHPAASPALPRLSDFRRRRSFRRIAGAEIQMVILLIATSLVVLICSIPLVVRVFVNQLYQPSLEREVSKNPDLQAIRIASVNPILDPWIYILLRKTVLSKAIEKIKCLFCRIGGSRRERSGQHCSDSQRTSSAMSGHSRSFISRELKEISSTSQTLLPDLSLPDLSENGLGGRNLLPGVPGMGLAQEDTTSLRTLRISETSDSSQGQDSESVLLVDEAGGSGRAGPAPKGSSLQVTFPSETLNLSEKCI
Note here that the antagonistic effect (IC50 value) of the test compound was calculated as a value that represents an inhibition rate against a reaction with PGE2 alone at 10 nM, a concentration that produces a submaximal cAMP producing effect.
Regarding `COCCNC(=O)c1ccc2ccn(C(C)C(=O)Nc3cc(C#N)ccc3CCCC(=O)O)c2c1` (single isomer, unassigned) [Example 10-1(2), 4-{4-cyano-2-[(2-{6-[(2-methoxyethyl)carbamoyl]-1H-indol-1-yl}propanoyl)amino]phenyl}butanoic acid], inhibition was half-maximal at 3.7 nM (IC50). For the compound `CNC(=O)c1ccc2c(C)cn(C(C)C(=O)Nc3cc(C#N)ccc3CCCC(=O)O)c2c1` (single isomer, unassigned) [Example 11-3(2), 4-[4-cyano-2-({2-[3-methyl-6-(methylcarbamoyl)-1H-indol-1-yl]propanoyl}amino)phenyl]butanoic acid], the IC50 is 2.7 nM.

`COCCNC(=O)c1ccc2c(C3CC3)cn(C(C)C(=O)Nc3cc(Cn4cc(C)cn4)ccc3CCCC(=O)O)c2c1` (single isomer, unassigned) [Example 9-5(2), 4-{2-[(2-{3-cyclopropyl-6-[(2-methoxyethyl)carbamoyl]-1H-indol-1-yl}propanoyl)amino]-4-[(4-methyl-1H-pyrazol-1-yl)methyl]phenyl}butanoic acid]: the concentration for half-maximal inhibition (IC50) turned out to be 2.2 nM.

Regarding `CCCNC(=O)c1ccc2c(C)cn(C(C)C(=O)Nc3cc(Cn4cc(C)cn4)ccc3CCCC(=O)O)c2c1` (single isomer, unassigned) [Example 3-5(2), 4-{2-({2-[3-methyl-6-(propylcarbamoyl)-1H-indol-1-yl]propanoyl}amino)-4-[(4-methyl-1H-pyrazol-1-yl)methyl]phenyl}butanoic acid], 2.1 nM corresponded to half-maximal inhibition (IC50). As for `CCNC(=O)c1ccc2c(C)cn(C(C)C(=O)Nc3cc(Cn4cc(C)cn4)ccc3CCCC(=O)O)c2c1` (single isomer, unassigned) [Example 3-3(2), 4-{2-({2-[6-(ethylcarbamoyl)-3-methyl-1H-indol-1-yl]propanoyl}amino)-4-[(4-methyl-1H-pyrazol-1-yl)methyl]phenyl}butanoic acid], the figure is 0.9 nM; as for `CNC(=O)c1ccc2c(C)cn(C(C)C(=O)Nc3cc(Cn4cc(C)c(C)n4)ccc3CCCC(=O)O)c2c1` (single isomer, unassigned) [Example 2-6(2), 4-{4-[(3,4-dimethyl-1H-pyrazol-1-yl)methyl]-2-({2-[3-methyl-6-(methylcarbamoyl)-1H-indol-1-yl]propanoyl}amino)phenyl}butanoic acid], 1.2 nM; as for `CNC(=O)c1ccc2c(C)cn(C(C)C(=O)Nc3cc(Cn4cc5c(n4)CCC5)ccc3CCCC(=O)O)c2c1` (stereo not shown) [Example 2-18, 4-[4-(5,6-dihydrocyclopenta[c]pyrazol-2(4H)-ylmethyl)-2-({2-[3-methyl-6-(methylcarbamoyl)-1H-indol-1-yl]propanoyl}amino)phenyl]butanoic acid], 5.5 nM. In turn, `Cc1cnn(Cc2ccc(CCCC(=O)O)c(NC(=O)C(C)n3cc(C)c4cc(C(=O)NC(C)C)ccc43)c2)c1` (single isomer, unassigned) [Example 8-9(2), 4-{2-({2-[5-(isopropylcarbamoyl)-3-methyl-1H-indol-1-yl]propanoyl}amino)-4-[(4-methyl-1H-pyrazol-1-yl)methyl]phenyl}butanoic acid] gave an IC50 of 3.3 nM. Regarding `CNC(=O)c1ccc2c(C)cn(C(C)C(=O)Nc3cc(CN4CCCCS4(=O)=O)ccc3CCCC(=O)O)c2c1` (stereo not shown) [Example 2, 4-{4-[(1,1-dioxide-1,2-thiazinan-2-yl)methyl]-2-({2-[3-methyl-6-(methylcarbamoyl)-1H-indol-1-yl]propanoyl}amino)phenyl}butanoic acid], the IC50 was determined as 39 nM. `Cc1cn(C(C)C(=O)Nc2cc(C#N)ccc2CCCC(=O)O)c2cc(C(=O)NC3CCCC3)ccc12` (single isomer, unassigned) [Example 11-11(2), 4-[4-cyano-2-({2-[6-(cyclopentylcarbamoyl)-3-methyl-1H-indol-1-yl]propanoyl}amino)phenyl]butanoic acid] yielded an IC50 of 2 nM. As for `CNC(=O)c1ccc2c(C)cn(C(C)C(=O)Nc3cc(Cn4cc(C(C)C)nn4)ccc3CCCC(=O)O)c2c1` (single isomer, unassigned) [Example 6-5(1), 4-{4-[(4-isopropyl-1H-1,2,3-triazol-1-yl)methyl]-2-({2-[3-methyl-6-(methylcarbamoyl)-1H-indol-1-yl]propanoyl}amino)phenyl}butanoic acid], the figure is 2.7 nM; as for `CNC(=O)c1ccc2c(C)cn(C(C)C(=O)Nc3cc(-c4nnc(C)o4)ccc3CCCC(=O)O)c2c1` (single isomer, unassigned) [Example 15-1(2), 4-[2-({2-[3-methyl-6-(methylcarbamoyl)-1H-indol-1-yl]propanoyl}amino)-4-(5-methyl-1,3,4-oxadiazol-2-yl)phenyl]butanoic acid], 6.4 nM; as for `Cc1cnn(Cc2ccc(CCCC(=O)O)c(NC(=O)C(C)n3cc(C)c4ccc(C(=O)NCC5CC5)cc43)c2)c1` (single isomer, unassigned) [Example 3-20(2), 4-{2-[(2-{6-[(cyclopropylmethyl)carbamoyl]-3-methyl-1H-indol-1-yl}propanoyl)amino]-4-[(4-methyl-1H-pyrazol-1-yl)methyl]phenyl}butanoic acid], 1.4 nM. In turn, `CC(C(=O)Nc1cc(C#N)ccc1CCCC(=O)O)c1c[nH]c2ccccc12` (stereo not shown) [4-[4-cyano-2-[2-(indol-3-yl)propanoylamino]phenyl]butanoic acid, reference compound] yielded an IC50 of 360 nM.

Compound `Cc1cnn(Cc2ccc(CCCC(=O)O)c(NC(=O)C(C)n3cc(C)c4ccc(C(=O)NC(C)C)cc43)c2)c1` (single isomer, unassigned) [Example 3-7(2), 4-{2-({2-[6-(isopropylcarbamoyl)-3-methyl-1H-indol-1-yl]propanoyl}amino)-4-[(4-methyl-1H-pyrazol-1-yl)methyl]phenyl}butanoic acid] returned an IC50 of 1.7 nM. In the case of `CNC(=O)c1ccc2c(C)cn(C(C)C(=O)Nc3cc(Cn4cc(C)cn4)ccc3CCCC(=O)O)c2c1` (single isomer, unassigned) [Example 12-1(2), 4-{2-({2-[3-methyl-6-(methylcarbamoyl)-1H-indol-1-yl]propanoyl}amino)-4-[(4-methyl-1H-pyrazol-1-yl)methyl]phenyl}butanoic acid], the IC50 came to 1.6 nM. Consider `CNC(=O)c1ccc2c(C)cn(C(C)C(=O)Nc3cc(Cn4cc(F)cn4)ccc3CCCC(=O)O)c2c1` (single isomer, unassigned) [Example 4-8(2), 4-{4-[(4-fluoro-1H-pyrazol-1-yl)methyl]-2-({2-[3-methyl-6-(methylcarbamoyl)-1H-indol-1-yl]propanoyl}amino)phenyl}butanoic acid], for which the IC50 is 2.7 nM. The same measure for `CNC(=O)c1ccc2c(C3CC3)cn(C(C)C(=O)Nc3cc(C#N)ccc3CCCC(=O)O)c2c1` (single isomer, unassigned) [Example 11-23(2), 4-[4-cyano-2-({2-[3-cyclopropyl-6-(methylcarbamoyl)-1H-indol-1-yl]propanoyl}amino)phenyl]butanoic acid]: 6.5 nM; for `Cc1cn(C(C)C(=O)Nc2cc(C#N)ccc2CCCC(=O)O)c2cc(C(=O)NC(C)(C)C)ccc12` (single isomer, unassigned) [Example 11-7(2), 4-{4-cyano-2-[(2-{3-methyl-6-[(2-methyl-2-propanyl)carbamoyl]-1H-indol-1-yl}propanoyl)amino]phenyl}butanoic acid]: 1.6 nM. Consider `CNC(=O)c1ccc2c(C)cn(C(C)C(=O)Nc3cc(COc4cc(C)nc(C)c4)ccc3CCCC(=O)O)c2c1` (stereo not shown) [Example 1-5, 4-[4-{[(2,6-dimethyl-4-pyridinyl)oxy]methyl}-2-({2-[3-methyl-6-(methylcarbamoyl)-1H-indol-1-yl]propanoyl}amino)phenyl]butanoic acid], for which it took 4.9 nM to reach half-maximal inhibition (IC50). `Cc1cn(C(C)C(=O)Nc2cc(C#N)ccc2CCCC(=O)O)c2cc(C(=O)NCc3ccccc3)ccc12` (stereo not shown) [Example 11-8, 4-[2-({2-[6-(benzylcarbamoyl)-3-methyl-1H-indol-1-yl]propanoyl}amino)-4-cyanophenyl]butanoic acid] gave an IC50 of 4 nM.

Take `Cc1cnn(Cc2ccc(CCCC(=O)O)c(NC(=O)C(C)n3cc(C)c4cc(C(=O)N5CCCC5)ccc43)c2)c1` (single isomer, unassigned) [Example 8-17(2), 4-{4-[(4-methyl-1H-pyrazol-1-yl)methyl]-2-({2-[3-methyl-5-(1-pyrrolidinylcarbonyl)-1H-indol-1-yl]propanoyl}amino)phenyl}butanoic acid]: the midpoint of inhibition, the IC50, lay at 8.6 nM. The compound `COCCNC(=O)c1ccc2c(C3CC3)cn(C(C)C(=O)Nc3cc(C#N)ccc3CCCC(=O)O)c2c1` (single isomer, unassigned) [Example 11-25(2), 4-{4-cyano-2-[(2-{3-cyclopropyl-6-[(2-methoxyethyl)carbamoyl]-1H-indol-1-yl}propanoyl)amino]phenyl}butanoic acid] returned an IC50 of 0.57 nM. In the case of `CNC(=O)c1ccc2c(C3CC3)cn(C(C)C(=O)Nc3cc(Cn4cc(C)cn4)ccc3CCCC(=O)O)c2c1` (single isomer, unassigned) [Example 9-1(2), 4-{2-({2-[3-cyclopropyl-6-(methylcarbamoyl)-1H-indol-1-yl]propanoyl}amino)-4-[(4-methyl-1H-pyrazol-1-yl)methyl]phenyl}butanoic acid], inhibition was half-maximal at 4.6 nM (IC50). In turn, `CNC(=O)c1ccc2c(C)cn(C(C)C(=O)Nc3cc(Oc4ccccc4)ccc3CCCC(=O)O)c2c1` (stereo not shown) [Example 13, 4-[2-({2-[3-methyl-6-(methylcarbamoyl)-1H-indol-1-yl]propanoyl}amino)-4-phenoxyphenyl]butanoic acid] gave an IC50 of 0.79 nM.

These data come from patent publication US11479550B2, “EP4 antagonist” (ONO PHARMACEUTICAL CO., LTD., priority 2017, dated 2022).
